Where two headings read alike, the source gives them in different places. Marks after values point to notes of the source that are not given here.
How the values were obtained:
[1] = target: T1, Uracil reductase (dihydropyrimidine dehydrogenase, EC 1.3.1.2) (Bos taurus, UniProt Q28007); experiment: Determination of uracil reductase inactivation; assay type: biochemical, bovine; details: for inhibition at 100 µM: 0.5 h; for relative first-order rate constants for inactivation of enzyme (parenthetical values): 50 micromol inactivator, fractional activity vs time of incubation
T1 construct: purified from bovine liver; from tissue; host or cells: bovine liver
T1 sequence (Q28007 1-1025): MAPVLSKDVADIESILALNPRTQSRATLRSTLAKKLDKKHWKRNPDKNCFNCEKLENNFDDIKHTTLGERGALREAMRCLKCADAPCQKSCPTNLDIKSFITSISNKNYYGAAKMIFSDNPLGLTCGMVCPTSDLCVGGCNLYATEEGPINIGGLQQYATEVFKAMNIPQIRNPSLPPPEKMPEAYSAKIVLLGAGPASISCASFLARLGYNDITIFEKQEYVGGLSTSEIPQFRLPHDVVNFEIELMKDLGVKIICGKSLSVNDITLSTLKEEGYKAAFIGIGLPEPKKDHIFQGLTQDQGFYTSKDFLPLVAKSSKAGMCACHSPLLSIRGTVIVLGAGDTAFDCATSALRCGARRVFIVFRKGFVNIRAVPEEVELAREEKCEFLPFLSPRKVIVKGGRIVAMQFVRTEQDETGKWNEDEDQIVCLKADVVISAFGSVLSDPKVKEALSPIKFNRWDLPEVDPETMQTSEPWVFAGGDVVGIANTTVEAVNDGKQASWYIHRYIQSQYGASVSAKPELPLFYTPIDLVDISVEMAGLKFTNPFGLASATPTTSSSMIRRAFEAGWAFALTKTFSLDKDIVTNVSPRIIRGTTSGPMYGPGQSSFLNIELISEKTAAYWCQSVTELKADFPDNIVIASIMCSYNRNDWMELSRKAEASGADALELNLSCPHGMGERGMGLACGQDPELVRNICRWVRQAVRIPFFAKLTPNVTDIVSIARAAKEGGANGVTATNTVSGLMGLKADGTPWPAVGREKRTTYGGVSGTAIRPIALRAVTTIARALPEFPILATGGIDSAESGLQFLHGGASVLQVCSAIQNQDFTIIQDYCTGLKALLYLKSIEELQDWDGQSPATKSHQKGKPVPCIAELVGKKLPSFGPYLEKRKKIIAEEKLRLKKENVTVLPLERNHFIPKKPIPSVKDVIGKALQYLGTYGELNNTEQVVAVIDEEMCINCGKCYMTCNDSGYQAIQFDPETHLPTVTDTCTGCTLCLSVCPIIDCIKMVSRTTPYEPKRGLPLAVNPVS
Experimental: Uracil reductase (1 micromolar) (dihydropyrimidine dehydrogenase, EC 1.3.1.2) purified from bovine liver was incubated with 100 micromolar inactivator and 5 mM dithiothreitol (enzyme reductant) at 37° for 30 minutes in 0.05 M Tris-HCl at pH 8.0. The enzyme and inactivator were diluted 100-fold into the assay buffer, which contained 200 micromolar NADPH, 200 micromolar thymine and 1 mM dithiothreitol in Tris-HCl at pH 8.0. The velocity of the enzyme was determined spectrophotometrically. These velocities have been corrected for NADPH oxidase activity, which was less than […] of the rate of thymine-dependent oxidation of NADPH. The % inactivation of the enzyme was equal to 100% minus the percent of enzymatic activity remaining. Enzyme incubated without inhibitor was stable under these conditions. Parenthetical values are the relative first-order rate constants for inactivation of enzyme determined from similar experiments where the fractional activity was measured as a function of the time of incubation of 50 micromol inactivator with enzyme.

Colon 38 tumor = experiment: Potentiation of the antitumor activity of 5-FU by EU, Colon 38 tumor in mice; assay type: in vivo
Experimental: Colon 38 tumor was implanted in mice on day zero. Mice (8 per group) were treated with 5-FU on days one through nine with the doses indicated in Table 2 EU was dosed i.p. at 2 mg/kg 30 minutes prior to 5-FU dosing where indicated.

[2] = target: T2, dihydrothymidine dehydrogenase (Homo sapiens, UniProt Q12882); details: Cancer Research 46, 1094, 1986; cited from earlier work
T2 sequence (Q12882 4-1025): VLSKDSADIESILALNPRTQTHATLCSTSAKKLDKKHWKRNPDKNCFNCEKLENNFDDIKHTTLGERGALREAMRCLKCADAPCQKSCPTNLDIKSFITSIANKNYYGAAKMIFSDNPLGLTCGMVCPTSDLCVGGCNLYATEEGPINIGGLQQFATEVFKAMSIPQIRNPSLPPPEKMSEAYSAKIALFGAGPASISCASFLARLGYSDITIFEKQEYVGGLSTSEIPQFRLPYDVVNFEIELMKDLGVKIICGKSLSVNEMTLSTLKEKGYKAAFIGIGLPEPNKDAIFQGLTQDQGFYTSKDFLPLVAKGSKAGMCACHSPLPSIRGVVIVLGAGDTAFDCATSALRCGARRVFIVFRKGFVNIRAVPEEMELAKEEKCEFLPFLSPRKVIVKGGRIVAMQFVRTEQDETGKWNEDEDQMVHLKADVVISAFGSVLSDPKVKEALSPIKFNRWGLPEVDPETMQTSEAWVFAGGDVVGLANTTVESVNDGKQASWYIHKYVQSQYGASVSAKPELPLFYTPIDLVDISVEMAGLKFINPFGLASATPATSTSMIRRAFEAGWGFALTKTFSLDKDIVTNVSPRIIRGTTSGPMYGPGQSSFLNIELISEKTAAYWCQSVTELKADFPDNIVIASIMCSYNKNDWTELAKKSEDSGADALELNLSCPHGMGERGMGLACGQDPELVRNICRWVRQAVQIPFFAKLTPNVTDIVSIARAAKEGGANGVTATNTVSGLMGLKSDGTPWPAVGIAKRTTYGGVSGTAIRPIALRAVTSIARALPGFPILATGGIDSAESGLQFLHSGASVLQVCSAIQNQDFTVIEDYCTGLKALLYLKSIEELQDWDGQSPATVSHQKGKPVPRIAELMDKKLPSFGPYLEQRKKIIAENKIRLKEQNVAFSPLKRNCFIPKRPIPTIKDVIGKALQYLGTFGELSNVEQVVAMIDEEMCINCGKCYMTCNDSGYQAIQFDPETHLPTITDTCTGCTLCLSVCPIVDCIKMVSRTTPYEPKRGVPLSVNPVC

[3] = in vivo; cited from earlier work
[4] = 100 micromolar inactivator, 1 micromolar enzyme, 5 mM dithiothreitol, 37° for 30 minutes, pH 8.0, read-out: % Inactivation

| SMILES | inhibition at 100 µM [1, 4] [%] | relative first-order rate constants for inactivation of enzyme (parenthetical values) [1] | further results |
| --- | --- | --- | --- |
| O=c1[nH]cc(C(F)(F)F)c(=O)[nH]1 [5-trifluoromethyluracil] | 75 | – | – |
| O=c1[nH]cc(C#CBr)c(=O)[nH]1 [5-bromoethynyluracil] | 100 | (8) | – |
| O=c1[nH]cc(Br)c(=O)[nH]1 [5-bromouracil] | – | – | inhibition at 100 µM ([1]; pH 8, read-out: % Inactivation): 75% |
| O=c1[nH]cc(F)c(=O)[nH]1 [FU, 5-fluorouracil] | – | – | % Mice Tumor Free on Day 17 (Colon 38 tumor; 5-FU 10 mg/kg i.p. days 1-9, no EU): 0%; % Mice Tumor Free on Day 17 (Colon 38 tumor; 5-FU 10 mg/kg p.o. days 1-9, no EU): 0%; % Mice Tumor Free on Day 17 (Colon 38 tumor; 5-FU 15 mg/kg i.p. days 1-9, no EU): 12.5%; % Mice Tumor Free on Day 17 (Colon 38 tumor; 5-FU 15 mg/kg p.o. days 1-9, no EU): 12.5%; % Mice Tumor Free on Day 17 (Colon 38 tumor; 5-FU 20 mg/kg i.p. days 1-9, no EU): 12.5%; % Mice Tumor Free on Day 17 (Colon 38 tumor; 5-FU 20 mg/kg p.o. days 1-9, no EU): 12.5%; % Mice Tumor Free on Day 17 (Colon 38 tumor; 5-FU 25 mg/kg p.o. days 1-9, no EU): 12.5%; % Mice Tumor Free on Day 17 (Colon 38 tumor; 5-FU 30 mg/kg i.p. days 1-9, no EU): 87.5^a %; % Mice Tumor Free on Day 17 (Colon 38 tumor; 5-FU 30 mg/kg p.o. days 1-9, no EU): 12.5% |
| C=Cc1c[nH]c(=O)[nH]c1=O [5-vinyluracil] | 86 | – | – |
| C=C(Cl)c1c[nH]c(=O)[nH]c1=O [5-(1-chlorovinyl)uracil] | 100 | (5) | – |
| CCCCC#Cc1c[nH]c(=O)[nH]c1=O [5-hex-1-ynyluracil] | 90 | – | – |
| CC#Cc1c[nH]c(=O)[nH]c1=O [5-propynyluracil, 5-Propynyluracil] | 100 | (8) | melting point: 275 to 280 °C (dec.) |
| O=c1[nH]cc(C=CBr)c(=O)[nH]1 [BVU, 5-(2-bromovinyl)-uracil] | – | – | inhibition of dihydrothymidine dehydrogenase [2]: is an inhibitor; toxicity to humans [3]: toxic to humans |
| N#Cc1c[nH]c(=O)[nH]c1=O [5-cyanouracil] | 100 | (14) | – |
| O=c1[nH]cc(I)c(=O)[nH]1 [Example 5-iodouracil, 5-iodouracil] | 100 | (4) | – |

Source: US7704971B2, “Uracil reductase inactivators” (SmithKlineBeecham Corporation, priority 1990, dated 2010)
